The format of data set [1] is physicochemical. As to the method: (§1) 4 µL of 1 mg/mL peptide fibrils solution is added to a 20 µL, 50 µM ThT–solution in PBS. The mixture is incubated for 15 min at RT to allow binding of ThT dye with β–sheet rich structures. For reference PBS (4 µL) was added instead of peptide fibril solution. The samples were placed in black UV Star® 384 microliter well–plates (Greiner bio–one). Fluorescence spectra were recorded on an Infinite® M1000 PRO microplate reader (Tecan) at λem = 488 nm upon excitation at λex = 440 nm with 10 nm bandwidths and multiple reads per well (3×3). Measurements were repeated in triplicates and averaged with standard deviation. […] Zeta-Potential. For the determination of the surface charge of aggregated peptides zeta-potential measurements were conducted with a Zetasizer Nano ZS, Malvern Instruments. Unless stated otherwise the peptides were dissolved from DMSO (10 mg/mL) in PBS (pH 7.4) to concentration of 1 mg/mL and incubated for 1d at RT. Just before the measurement the 60 µL of the peptides were further diluted in 600 µL KCl (aq, 1 mM) in a 1 mL disposable folded capillary cells (DTS–1060, Zetasizer Nano series, Malvern). The zeta potential of the peptides was derived from the electrophoretic mobility based on the Smoluchowski formula. All measurements were averaged over two individually performed experiments and conducted in triplicates for each sample. Aggregate analysis. […] Furthermore, fluorescence microscopy was conducted by staining 1 µL preformed fibrils (1 mg/mL) with 9 µL ThT (50 µM). Brightfield microscopy was performed simultaneously to evaluate aggregation also for non ThT-active fibrils. The measurements were performed on a Leica DMi8 microscope with 10x air objective and equipped with a Leica MC170 HD camera with a filter setting λem = 527/30 nm upon excitation at λex = 480/40 nm) and processed with the Leica LASX software. To quantify size and number of microscopic aggregation of particles > 10 µm^2 at least 3 independently measured images were analyzed via the 3D object counter analysis tool of ImageJ, v 1.53f51. Sum–frequency generation. The SFG experiments were carried out with a femtosecond Ti: Sapphire amplified laser system (Spitfire Ace, Spectra–Physics, 800 nm, 40 fs, 1 kHz) with 5 W output power. We used 2 W to pump an optical parametric amplifier (TOPAS, light conversion) with a non–collinear difference frequency generation stage to generate broadband IR pulses. Another 1 W of the laser output passed through an etalon to generate narrowband visible pulses (10 cm^-1). The incident angles of the visible and IR beams were 36° and 41° with respect to the surface normal, respectively. The visible (13 µJ) and IR (5 µJ) pulses were overlapped spatially and temporally at the sample position. Subsequently, the generated SFG pulse was guided into a spectrograph (Acton SP 300i, Princeton Instruments), and detected with an EMCCD (Newton, Andor Technology). To avoid IR absorption of water vapor, we purged N2 for the measurement. All spectra were collected in the ssp (denoting s-, s- and p-polarized SFG, visible and IR, respectively) polarization combination. The spectra were normalized to the non–resonant signal taken from z–cut quartz after subtracting a background spectrum.
(§2) 1. Remarks on experimental parameters and bioinformatic descriptors

Data set [2] in a line: Zeta-potential measurement. Set-up: Zeta-Potential: unit not given here. The class given is physicochemical. As for the experimental part: as §1, with “spectrum. […]” for “spectrum.”
The nature of data set [3]: Turbidity, derived count rate of scattered light. The class given is physicochemical. The note with it: for Count Rate / kcps: derived count rate of scattered light at 633 nm, 173°, from zeta-potential measurement, 0.1 mg/mL in 1 mM KCl after 1 d at 1 mg/mL in PBS, turbidity / microscopic aggregation, mean of triplicate. As for the experimental part: as §1, with “spectrum. […]” for “spectrum.”
ways to determine turbidity of samples, this can be via transmittance and via scattering. Transmittance […]
as it is an easy and fast method.10,11 However, transmittance contributes not only from µm-sized aggregates but also nm-sized aggregates such as distinct fibrils, which makes hard to distinguish between fibril formation and micrometer sized aggregation. Although dynamic light scattering is a frequently applied method for determination of particle size, it cannot be conducted in solutions with anisotropic aggregates in micrometer size range, since the Stokes-Einstein relation is only applicable for homogeneous […] spherical particles.12 Further models describing scattering intensity and […]

Data set [4] relates to HIV-1 infection of TZM-bl cells. The data set is described as follows: HIV-1 infectivity enhancement assay, β-galactosidase luminescence. The data set is classed as cell-based. The note with it: for Log10 Infection Rel EF-C: log10 of infection relative to EF-C; for Inf. rel. EF-C: n-fold infection vs virus only, relative to that of EF-C, 1.3 µM peptide.
Data set [5] is described as follows: Turbidity, derived count rate of scattered light. The note with it: log10 of derived count rate of scattered light, Figure 7B. The class given is physicochemical.
The format of data set [6] is physicochemical. Details: key to Fibril / Fibril Formation / TEM 2cat / Fibril: 1 = fibrils present; 0 non-fibrillar structures. As to the method: For ATR FT–IR spectroscopy measurements, 200 µL of the respective 1 mg/mL PNF solution was lyophilized and the resulting powder used for measurement. All spectra were recorded on a Bruker Tensor 27 spectrometer with a diamond crystal as ATR element (PIKE MiracleTM, spectral resolution 2 cm^-1). Every sample was measured with 64 scans. Data were analyzed with OriginLab software and calculation of β–sheet content was conducted according to a previous report. TEM. For TEM measurements 5 µL of PNF fibrils (1 mg/mL) were placed on copper grids coated with carbon and formvar layer (300 mesh, Plano GmbH). After 10 min incubation time, the grids were staining with 4% uranyl acetate solution for 2.5 min and washed with water. Measurements were performed on a Jeol 1400 electron microscope with 120 kV acceleration voltage. CR Assay. For the determination of the amount of peptide monomer converting into nanostructures the amine reactive dye fluorescamine was used analogous to a previous reported protocol. Briefly, 100 µL of the preformed PNF solution was centrifuged in a Vivaspin 500 tube (3 kDa MWCO) to separate fibers from free peptide monomer (16200 x g, 4 °C, 45 min). The filtrate and 100 μL of the non-filtered PNF sample were lyophilized and dissolved in 30 μL DMSO. 10 μL of the filtrate and non-filtered DMSO samples were submitted in a black UV Star® 384 microliter well–plates (Greiner bio–one) and 3 μL of the fluorescamine solution (10 mg/mL, DMSO) was added to measure the fluorescence enhancement. After 20 min of incubation at RT, fluorescence was recorded on an Infinite® M1000 PRO microplate reader (Tecan) at λem = 470 nm upon excitation at λex = 365 nm with 10 nm bandwidths and multiple reads per well (3×3). Measurements were repeated in triplicates and averaged with standard deviation. All values were calculated as n-fold fluorescence enhancement (DMSO only as a reference was set to 1). The conversion rate CR was defined according to the equation Eq. (3).3 CR=100−100×fluorescenceintensityfiltrate/fluorescenceintensityoriginal[%]
as §2
1.1 Experimental parameters
Transmission electron microscopy (TEM) measurements. TEM measurements were used to control if peptides assemble. The assemblies were categorized in non -fibrillar structures (no assembly, […]
grid but only amorphous aggregates. In contrast, peptides defined as fibrillar may also include amorphous structures. Amongst nonfibrillar assemblies also amorphous aggregates are summarized.
Amorphous aggregates are defined as structures with high β-sheet content which lack long-range order, that is crystallinity or fibril formation. It is generally assumed that these structures might be

Like-named read-outs stand apart in the source and are kept apart here.

For LANWMCLAKW [reference compound], the “ThT Cat. / ThT-Fluorescence (categorical)” value in data set [1] (ThT-active if fluorescence at least twice the control) is listed as 1 (ThT. Cat is 1, if Rel. ThT >2). Moreover, the “Zeta Potential” value in data set [2] (mean of n = 3) came out at 14.73. For the same substance, in data set [2] (mean, Figure 7B), the “Zeta-Potential / mV” value stood at 14.73 mV. The results for the Zeta-Potential in data set [2] (replicate 1), in data set [2] (replicate 2) and in data set [2] (replicate 3) were 14.5, 14.6 and 15.1, respectively. In addition, in data set [3], the “Count Rate / kcps” value is listed as 15062 kcps. Also, the “Count Rate” value in data set [3] (derived count rate of scattered light, mean of n = 3) was found to be 15061.73333 kcps; in data set [3] (derived count rate of scattered light, replicate 1), 20482.8 kcps; in data set [3] (derived count rate of scattered light, replicate 2) it was 10116.2 kcps; in data set [3] (derived count rate of scattered light, replicate 3), 14586.2 kcps. For the same substance, the “Log10 Infection Rel EF-C” value in data set [4] (Figure 7B) was -0.4. Also, the “Inf. rel. EF-C” value in data set [4] is reported as 0.40. In addition, the “Abs Infection at 0.26µM” value in data set [4] (peptide 0.26 µM, mean of n = 3, Figure 7A) came out at 44873.33333. In data set [4] (peptide 1.3 µM, mean of n = 3, Figure 7A), the “Abs Infection at 1.3 µM” value turned out to be 80126.66667. Also, the “Abs Infection at 6.5 µM” value in data set [4] (peptide 6.5 µM, mean of n = 3, Figure 7A) is on record as 133423.3333. Besides, in data set [5], the “Log10 Count Rate” value was determined as 4.178.

In the case of ILKNLSRSRKIKIQINMWQ [TM92], the “Tht rel to blank (42.1851851851852)” value in data set [1] (ThT fluorescence relative to blank (42.1851851851852 a.u.)) was found to be 3.339. Further, the “Zeta category ( +1 = if > 4 mV;-1 = if < -4 mV; 0 = -4mV to 4 mV)” value in data set [2] (category from zeta potential) is 1 (+1 = if > 4 mV). In addition, the “Zeta Pot. / mV” value in data set [2] (mean, Std Zeta in next column) is reported as 19.2 mV. Further, the “Zeta-pot. / mV” value in data set [2] (zeta potential of peptide, Fig S15 source data) came to 19.2 mV. For the same substance, in data set [3] (category 1 or 0 from count rate, key not given), the “Zeta Count Rate Category” value is recorded as 1. Moreover, in data set [3] (derived count rate of scattered light, mean, std deviation in next column), the “Zeta Count Rate / kcps” value turned out to be 306.5 kcps. The “Log10 of Rel to EFC (Feb2021)” value in data set [4] (Feb2021, Log10 of infectivity relative to EF-C) is recorded as -0.4939. The “Rel-to EFC (Feb-2021)” value in data set [4] (Feb2021, n-fold enhancement relative to EF-C) worked out at 0.3207. For the same substance, the infectivity entry in data set [4] (infectivity class (low / medium / high) of each library peptide, main list in c1-c6, same classes repeated in sub-lists of sequences containing the hydrophobicity/charge patterns P+,H0,P+,H0,P0,H0,P0, P+,H0,P0,H0,P0,H0,P0, P+,H0,P0,H0) is listed as “medium”. Further, the “Log10 Inf. rel. to EF-C” value in data set [4] (log10 of HIV-1 infection of TZM-bl cells relative to EF-C, Fig S15 source data, asymmetric std dev errors) is -0.4939.

On to KCQCQCQ, for which the “Zeta-Potential / mV” value in data set [2] (mean, Figure 6C) worked out at 11.83 mV. In addition, the “Count Rate / kcps” value in data set [3] came to 15236 kcps. The “Log10 Count Rate” value in data set [3] (log10 of derived count rate of scattered light, Figure 6C) was determined as 4.183; in data set [3] (logarithm of count rate in kcps) it was 4.183. Also, the “Log10 Infection Rel EF-C” value in data set [4] (Figure 6C) is reported as 0.05949. In addition, the “Inf. rel. EF-C” value in data set [4] is 1.15. Moreover, the “Fibril / Fibril Formation” value in data set [6] (TEM, 1 mg/mL, uranyl acetate stain, qualitative) turned out to be 1.

Take EFEFQFNMWQ [JH1]: the “Zeta category ( +1 = if > 4 mV;-1 = if < -4 mV; 0 = -4mV to 4 mV)” value in data set [2] and in data set [2] (category derived from the zeta potential) was 0 (0 = -4mV to 4 mV) throughout. The “TEM: 1= fibrils, 0= aggregates (micelle), 0.5 = aggregates and fibrils, -1 = nothing obersved, STD prep” value in data set [6] and in data set [6] (TEM) was 1 throughout.

For the origin of these results see PMC10447463, “Data-mining unveils structure–property–activity correlation of viral infectivity enhancing self-assembling peptides” (Nature Communications, 2023).
